Reference: patent publication US9078890B2, “Use of koumine and its homologues in preparation of medicament for treatment of autoimmune diseases of involved bones and joints” (priority 2011, dated 2015)
Marks after values point to notes of the source that are not given here.

What was measured:
adjuvant arthritis mice = assay: Adjuvant arthritis mice: hyperalgesia (phlogogenic paw thermal withdrawal latency); format: in vivo, Kunming mice
Description: BCG was inactivated in water bath at 80° C., and fully emulsified along with complete Freund's adjuvant to form complete Freund's adjuvant emulsion containing 5 mg/ml BCG, preserved at 4° C., and shake well before use. The Kunming mice were divided into a modeling group and a false modeling group. According to the method recited in the literature [Rasool M, Sabina E P, Lavanya B. Anti-inflammatory effect of Spirulina fusiformis on adjuvant-induced arthritis in mice. Biol Pharm Bull. 2006, 29(12):2483-7], for the modeling group, the model was prepared by intradermal injection of 20 ul the emulsion under the plantar surface of right paws after the mice was narcotized; for the false modeling group, the emulsion was replaced with physiological saline. For the modeling group, the animals were screened on Day 8 after injection: the mice with the injected paw thickness increased >0.5 mm and thermal hyperalgesia occurred (paw thermal withdrawal latency <8 second) were selected as experimental subjects. The selected mice were divided into 5 groups randomly: low, middle, high dose treatment group (0.8, 4, 20 mg/kg); indomethacin positive control group (10 mg/kg); negative control group (physiological saline), each comprising 12 animals. Day 8 after inflammation, intragastric administration was carried out on each group to give corresponding intervention, one time per day for 10 days continuously.
30 min after intragastric administration, the phlogogenic paw thermal withdrawal latency of the mice in each group was determined by photo-thermal dolorimeter to reflect animals' hyperalgesia status.

[1] = test system: type II collagen-induced arthritis rat; assay: Type II collagen-induced arthritis rat: thermal hyperalgesia (thermal withdrawal latency); format: in vivo, Wistar rat; details: amethopterin 1 mg/kg once every 3 days
Description: (§1) Under aseptic conditions, 10 mg chicken type II collagen protein was fully mixed with 5 ml 10 mM glacial acetic acid solution, and stirred overnight in refrigerator at 4° C. to fully dissolve it. It was mixed with complete Freund's adjuvant in equal volume in ice bath to fully emulsify into an emulsion with a collagen concentration of 1 mg/ml.
(§2) Wistar rats are divided into a modeling group and a false modeling group. After the modeling group rats were narcotized with intraperitoneal injection of pentobarbital, the above emulsion was injected intracutaneously at 3 to 4 positions at back, tail root or the like, 0.3 ml for each, an primary immunity was carried out. After 7 days, a secondary immunity was carried out, the emulsifying agent complete Freund's adjuvant of initial immunity was replaced with incomplete Freund's adjuvant, 0.1 ml the emulsion was injected under sevoflurane inhalation anesthesia wherein the injection position is different from the last time. In false modeling group, the emulsion was replaced with solvent glacial acetic acid solution.
(§3) Successfully modeled rat in the modeling group were randomly divide into 5 groups: low, middle, high-dose koumine treatment group, positive control group, negative control group, 10 rats for each group. Beginning from Day 21 after modeling, corresponding intervention was carried out as following in 10 days continuously: 0.6, 3, 15 mg/kg koumine were intragastrically administrated to the low, middle, high-dose koumine treatment group respectively, 1 time every day; 1 mg/kg amethopterin was administrated to the positive control group, 1 time every 3 days, equal volume of physiological saline was administrated for the remained days; equal volume of physiological saline was administrated to the negative control group.
1 hour after intragastric administration, the thermal withdrawal latency of each group was determined by the photo-thermal dolorimeter; the mechanical pain threshold of rats of each group was determined by Von-frey electromechanical pain threshold detector, thus the condition of thermal hyperalgesia and mechanical hyperalgesia of rats of each group was observed.

[2] = test system: type II collagen-induced arthritis rat; assay: Type II collagen-induced arthritis rat: condition and body weight; format: in vivo, Wistar rat
Description: as §1, §2, §3

Row | Structure (SMILES) | Thermal stimulus withdrawal latency, Before intervention (adjuvant arthritis mice; indomethacin 10 mg/kg intragastric once daily for 10 days from Day 8 after inflammation, before intervention) [s] | Thermal stimulus withdrawal latency, Intervention Day 4 (adjuvant arthritis mice; indomethacin 10 mg/kg intragastric once daily from Day 8, Day 4) | Thermal stimulus withdrawal latency, Intervention Day 8 (adjuvant arthritis mice; indomethacin 10 mg/kg intragastric once daily from Day 8, Day 8) | Thermal stimulus withdrawal latency, Intervention Day 12 (adjuvant arthritis mice; indomethacin 10 mg/kg intragastric once daily from Day 8, Day 12) | Thermal stimulus withdrawal latency, Intervention Day 16 (adjuvant arthritis mice; indomethacin 10 mg/kg intragastric once daily from Day 8, Day 16) | Thermal stimulus withdrawal latency, Intervention Day 18 (adjuvant arthritis mice; indomethacin 10 mg/kg intragastric once daily from Day 8, Day 18) | Thermal stimulus withdrawal latency, Before intervention ([1]; before intervention) [s] | Thermal stimulus withdrawal latency, Intervention Day 2 ([1]; intervention Day 2) [s] | Thermal stimulus withdrawal latency, Intervention Day 4 ([1]; intervention Day 4) | Thermal stimulus withdrawal latency, Intervention Day 6 ([1]; intervention Day 6) | Thermal stimulus withdrawal latency, Intervention Day 8 ([1]; intervention Day 8) | Thermal stimulus withdrawal latency, Intervention Day 10 ([1]; intervention Day 10) | Body weight after intervention, Day 7 ([2]; amethopterin 1 mg/kg once every 3 days from Day 21, Day 7) [g] | Body weight after intervention, Day 14 ([2]; amethopterin 1 mg/kg once every 3 days from Day 21, Day 14) [g] | Body weight after intervention, Day 21 ([2]; amethopterin 1 mg/kg once every 3 days from Day 21, Day 21) [g] | Body weight after intervention, Day 31 ([2]; amethopterin 1 mg/kg once every 3 days from Day 21, Day 31) [g] | Body weight before intervention ([2]; amethopterin 1 mg/kg once every 3 days, from Day 21 after modeling for 10 days, before intervention) [g]
1 | COc1ccc2c(c1)c(CC(=O)O)c(C)n2C(=O)c1ccc(Cl)cc1 [Positive control, Indomethacin, reference compound] | 13.8 ± 1.2 | 5.9 ± 1.1^★★ second | 4.1 ± 0.8^★★ second | 8.9 ± 0.9**^★ second | 9.8 ± 1.6**^★ second | 10.1 ± 1.2**^★★ second |  |  |  |  |  |  |  |  |  |  | 
2 | CN(Cc1cnc2nc(N)nc(N)c2n1)c1ccc(C(=O)N[C@@H](CCC(=O)O)C(=O)O)cc1 [Positive control group, Amethopterin, reference compound] |  |  |  |  |  |  | 8.05 ± 1.01 | 8.48 ± 0.73 | 9.15 ± 0.57**^★★ second | 9.27 ± 1.09**^★ second | 9.50 ± 1.08**^★★ second | 10.31 ± 1.21**^★ second | 154.5 ± 8.36 | 178.2 ± 5.93 | 203.1 ± 9.11 | 227.0 ± 12.68 | 129.8 ± 6.21
